In one series the target is T1, CB1 receptor (Homo sapiens, UniProt P21554).
T1 construct: expressed in transfected cells; host or cells: HEK293 cells (ATCC), calcium phosphate transfection
Briefly: cAMP accumulation in HEK293 cells transfected with AC7, D1AR, CB1R. In kind it is cell-based. Conditions: dopamine stimulated cAMP. As to the method:
HEK293 cells were obtained from American Type Culture Collection (Manassas, Va.). Cells were cultured in 225 mL flasks containing 39 mL of MEM containing 10% fetal bovine serum, penicillin (50 μg/mL), streptomycin (50 μg/mL), and neomycin (100 μg/mL). The flasks were maintained in a humidified atmosphere of 95% air and 5% CO2 at about 37° C. Transfection was performed by the method of DNA precipitation with calcium phosphate 1 day after HEK 293 cells were transferred to small flasks (75 mL) at the density of approximately 60 to 80% confluence. […] Transfection efficiency was routinely monitored by observing the expression of enhanced green fluorescent protein (GFP) by an epifluorescence microscope equipped with a filter set (excitation, 480/40 nm; emission, 535/50 nm) and a dichroic mirror (T89002bs; Chroma Technology, Rockingham, Vt.). […]
To determine the effect of the DCUK-OEt or other compounds on the function of the CB1 receptor, the cells were treated with the phosphodiesterase inhibitor, IBMX (500 μM), for 10 minutes at 37° C., followed by the addition of D1A receptor agonist, dopamine (DA) (1 μM), in the presence of a known CB1 agonist or agonist, plus a CB1 antagonist for 5 minutes. […] ATP and cAMP were separated through Dowex 50 and neutral alumina columns as is known in the art, and quantified by liquid scintillation counting. […]
For orientation: cAMP levels reflect the balance of adenylyl cyclase and phosphodiesterase activity.

The subject of series [1] is rats following spinal nerve ligation (SNL). Nature of the series: Thermal and tactile hyperalgesia after spinal nerve ligation (SNL). In kind it is in vivo, rat. The procedure: FIG. 7 illustrates the scheme for testing the DCUK ethyl ester in neuropathic pain models. In FIG. 7 graphs showing attenuation of tactile (Panel A) and thermal (Panel B) hyperalgesia in animals following spinal nerve ligation (SNL) are provided. DCUK-OEt (30 or 100 mg/kg) was administered at the time indicated by the arrow. Hyperalgesic responses were followed for the next 180 minutes. The shaded area represents the area of hyperalgesia produced by SNL. BL on the X-axis represents the baseline response of animals prior to spinal nerve ligation. SNL represents the response of the animals after spinal nerve ligation and prior to receiving the DCUKA ethyl ester.
Spinal Nerve Ligation and Sham Surgery. Anesthesia was maintained with 0.5% halothane in oxygen. After surgical preparation of the rats, a 2-cm paraspinal incision was made at the level L4-S2. The unilateral L5 and L6 spinal nerves were exposed and tightly ligated distal to the dorsal root ganglia by using 4-0 silk suture. The incisions were closed, and animals were allowed to recover. Sham-operated control rats were prepared in an identical manner without L5/L6 nerve ligation. […] Separate groups of animals were used in tests for thermal and tactile hypersensitivity.
Tactile Hypersensitivity Test and Evaluation. Animals were placed in a suspended plastic chamber with a wire mesh platform and allowed to habituate for 15 minutes. Tactile hypersensitivity was determined by measuring paw withdrawal threshold in response to probing the plantar surface of the left hind paw with a series of 8 calibrated von Frey filaments (0.40, 0.70, 1.20, 2.00, 3.63, 5.50, 8.50, and 15.1 g). Measurements were taken before surgery and before and after administration of drug or vehicle. Withdrawal threshold was determined by sequentially increasing and decreasing stimulus intensity (“up and down” method), analyzed by using a Dixon nonparametric test, and expressed as the paw withdrawal threshold in gram force values. All studies were carried out 7 days after spinal nerve ligation (SNL).
Thermal Hypersensitivity Test (Radiant Heat Paw Withdrawal Test). Rats were placed in clear plastic chambers on a glass surface and were habituated for 15 minutes before testing. Thermal sensitivity was measured by using paw withdrawal latency to a radiant heat stimulus. A radiant heat source (i.e., infrared) was activated with a timer and focused onto the plantar surface of the left hind paw of a rat, and the latency to paw withdrawal was measured. A motion detector that halted both lamp and timer when the paw was withdrawn determined paw withdrawal latency. The latencies were measured before surgery and before and after drug or vehicle administration. A maximum cutoff of 33 seconds was used to prevent tissue damage. […]

Series [2] is described as follows: Brain levels of DCUKA after intraperitoneal administration. In kind it is in vivo. The settings on record: over at least 2 hours. The procedure: While the acid forms of the diarylureido-dihalokynurenic acid compounds are detectable in the brain after intravenous or intraperitoneal injection, “prodrug” versions (e.g., esters) were prepared to enhance transport across the blood-brain barrier. FIG. 6 illustrates the brain levels of DCUKA after administration of DCUKA itself, the DCUK-O-methyl ester and the DCUK-O-ethyl ester. […] Accordingly, ethyl esters of the diarylureido-dihalokynurenate compounds are particularly preferred (e.g., DCUK-OEt).

T1 sequence (P21554 whole entry): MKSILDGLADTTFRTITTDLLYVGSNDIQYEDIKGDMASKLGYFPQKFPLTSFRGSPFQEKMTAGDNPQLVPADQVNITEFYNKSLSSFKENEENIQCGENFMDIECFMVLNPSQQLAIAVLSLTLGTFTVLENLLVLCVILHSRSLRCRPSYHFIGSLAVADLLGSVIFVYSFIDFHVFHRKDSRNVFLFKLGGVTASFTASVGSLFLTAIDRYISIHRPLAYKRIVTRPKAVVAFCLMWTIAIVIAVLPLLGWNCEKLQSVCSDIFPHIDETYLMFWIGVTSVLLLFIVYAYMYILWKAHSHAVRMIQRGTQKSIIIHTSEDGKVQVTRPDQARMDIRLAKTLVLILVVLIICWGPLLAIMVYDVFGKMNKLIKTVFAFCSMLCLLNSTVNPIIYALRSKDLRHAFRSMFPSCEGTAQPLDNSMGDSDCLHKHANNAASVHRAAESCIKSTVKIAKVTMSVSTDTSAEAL

Turning to `CCOC(=O)c1cc(NC(=O)N(c2ccccc2)c2ccccc2)c2c(Cl)cc(Cl)cc2n1` [DCUK-OEt, N,N-diphenyl-4-ureido-5,7-dichloro-2-carboxy quinoline ethyl ester], at CB1 receptor, the “functional action at CB1 receptor” value was “acts like an agonist at the CB1 receptor”. Moreover, the “normalization of thermal versus tactile hyperalgesia” value in series [1] (30 or 100 mg/kg) is listed as “thermal hyperalgesia is normalized by administration of DCUKA ethyl ester to a greater extent than tactile hyperalgesia”. Further, the “inhibition of thermal hyperalgesia” value in series [1] (i.p., 100 mg/kg) worked out at 75%; in series [1] (p.o., about 150 mg/kg), 45%. Besides, the “reduction of thermal hyperalgesia” value in series [1] (oral, 200 mg/kg emulsion) is on record as “about 70%”. Besides, the “levels of DCUKA in the brain generated by the ester” value in series [2] is given as “significantly improved levels of DCUKA in the brain”.

These data come from patent US20110184018A1, “METHOD FOR TREATING PERIPHERAL NEUROPATHIC PAIN” (LOHOCLA RESEARCH CORPORATION, priority 2005, published 2011).
